Test results as given in the NIST ThermoML archive (doi:10.1016/j.fluid.2011.02.015).

Conditions: Liquid, hot wire

FC(F)(F)CC(F)(F)F [1,1,1,3,3,3-hexafluoropropane]
Conditions | thermal conductivity [W/m/K]
252.57 K, 10000 kPa | 0.0912
252.8 K, 5000 kPa | 0.0891
252.87 K, 100 kPa | 0.0873
252.92 K, 10000 kPa | 0.0914
253.16 K, 5000 kPa | 0.0887
253.24 K, 20000 kPa | 0.0955
253.38 K, 100 kPa | 0.0872
253.41 K, 30000 kPa | 0.0972
253.47 K, 20000 kPa | 0.0949
253.51 K, 20000 kPa | 0.0952
253.6 K, 10000 kPa | 0.0911
253.65 K, 5000 kPa | 0.0891
253.66 K, 100 kPa | 0.0872
253.86 K, 30000 kPa | 0.0971
255.05 K, 30000 kPa | 0.0973
272.91 K, 30000 kPa | 0.0926
273.36 K, 10000 kPa | 0.0847
273.45 K, 20000 kPa | 0.0896
273.49 K, 1000 kPa | 0.0814
273.66 K, 10000 kPa | 0.0851
273.82 K, 5000 kPa | 0.0833
273.85 K, 1000 kPa | 0.081
273.86 K, 1000 kPa | 0.0812
273.95 K, 30000 kPa | 0.0929
274.06 K, 20000 kPa | 0.0895
274.16 K, 5000 kPa | 0.0832
274.27 K, 10000 kPa | 0.0855
274.33 K, 30000 kPa | 0.0927
274.57 K, 20000 kPa | 0.0892
274.63 K, 5000 kPa | 0.0835
293.15 K, 10000 kPa | 0.0802
293.22 K, 1000 kPa | 0.0762
293.42 K, 30000 kPa | 0.0894
293.49 K, 1000 kPa | 0.0767
293.61 K, 5000 kPa | 0.0782
293.65 K, 10000 kPa | 0.0805
293.76 K, 5000 kPa | 0.0781
293.76 K, 30000 kPa | 0.0891
293.85 K, 10000 kPa | 0.0802
293.95 K, 5000 kPa | 0.0783
294.47 K, 1000 kPa | 0.0764
294.54 K, 30000 kPa | 0.0893
312.5 K, 5000 kPa | 0.0705
312.59 K, 1000 kPa | 0.0682
312.89 K, 5000 kPa | 0.0709
313.01 K, 1000 kPa | 0.0683
313.28 K, 5000 kPa | 0.0706
313.39 K, 1000 kPa | 0.068
313.53 K, 20000 kPa | 0.0809
313.55 K, 10000 kPa | 0.0757
313.85 K, 10000 kPa | 0.0761
313.86 K, 30000 kPa | 0.0853
314.04 K, 10000 kPa | 0.0758
314.06 K, 30000 kPa | 0.085
314.2 K, 20000 kPa | 0.0809
315.13 K, 20000 kPa | 0.0815
315.13 K, 30000 kPa | 0.0852
332.48 K, 10000 kPa | 0.0699
332.49 K, 5000 kPa | 0.0654
332.51 K, 1000 kPa | 0.0623
332.72 K, 30000 kPa | 0.0805
332.79 K, 20000 kPa | 0.0756
332.84 K, 30000 kPa | 0.0813
332.85 K, 10000 kPa | 0.0695
332.87 K, 1000 kPa | 0.0624
332.89 K, 5000 kPa | 0.0651
333.2 K, 10000 kPa | 0.0695
333.24 K, 1000 kPa | 0.0623
333.26 K, 5000 kPa | 0.0648
333.48 K, 30000 kPa | 0.0802
333.59 K, 20000 kPa | 0.0755
334.42 K, 20000 kPa | 0.0761
353.02 K, 30000 kPa | 0.0749
353.17 K, 10000 kPa | 0.0636
353.29 K, 20000 kPa | 0.0705
353.35 K, 2000 kPa | 0.0565
353.35 K, 5000 kPa | 0.0593
353.57 K, 30000 kPa | 0.0744
353.68 K, 2000 kPa | 0.0564
353.74 K, 5000 kPa | 0.0592
353.74 K, 20000 kPa | 0.0701
353.82 K, 10000 kPa | 0.0635
353.95 K, 30000 kPa | 0.0741
354.09 K, 20000 kPa | 0.0699
354.12 K, 2000 kPa | 0.056
354.24 K, 10000 kPa | 0.0633
354.4 K, 5000 kPa | 0.0594
373.08 K, 10000 kPa | 0.0597
373.15 K, 30000 kPa | 0.0726
373.22 K, 5000 kPa | 0.0554
373.4 K, 20000 kPa | 0.0672
373.46 K, 3000 kPa | 0.0525
373.56 K, 10000 kPa | 0.0596
373.72 K, 5000 kPa | 0.0559
373.8 K, 30000 kPa | 0.0727
373.84 K, 3000 kPa | 0.0524
373.87 K, 20000 kPa | 0.0677
374.1 K, 10000 kPa | 0.0601
374.21 K, 30000 kPa | 0.0724
374.24 K, 5000 kPa | 0.0557
374.26 K, 3000 kPa | 0.0526
374.57 K, 20000 kPa | 0.0672
